The source made the active and inactive calls. No cut-off for these calls is given here.
What was measured:
PC-9 = assay: Cytotoxicity against human PC-9 cells incubated for 48 hrs by CCK8 assay; format: functional, cell-based
L02 = assay: Cytotoxicity against human L02 cells incubated for 48 hrs by CCK8 assay; format: toxicity, cell-based; conditions: l02, 48 h
Pseudomonas aeruginosa = assay: Antibacterial activity against Pseudomonas aeruginosa ATCC 10145 at 0.1 mg/mL incubated for 12 hrs by agar dilution method; format: functional, organism-based
Escherichia coli = assay: Antibacterial activity against Escherichia coli ATCC 11775 at 0.1 mg/mL incubated for 12 hrs by agar dilution method; format: functional, organism-based
Candida albicans = assay: Antifungal activity against Candida albicans ATCC 10231 at 0.1 mg/mL incubated for 12 hrs by agar dilution method; format: functional, organism-based
A549 = assay: Cytotoxicity against human A549 cells incubated for 48 hrs by CCK8 assay; format: functional, cell-based
Staphylococcus aureus [1] = assay: Antibacterial activity against Staphylococcus aureus ATCC 6538 at 0.1 mg/mL incubated for 12 hrs by agar dilution method; format: functional, organism-based
Staphylococcus aureus [2] = assay: Antibacterial activity against methicillin-resistant Staphylococcus aureus subsp. aureus ATCC 43300 at 0.1 mg/mL incubated for 12 hrs by agar dilution method; format: functional, organism-based
Nakaseomyces glabratus = assay: Antifungal activity against Candida glabrata ATCC 2001 at 0.1 mg/mL incubated for 12 hrs by agar dilution method; format: functional, organism-based
HCT-116 = assay: Cytotoxicity against human HCT-116 cells incubated for 48 hrs by CCK8 assay; format: functional, cell-based

Row | Structure (SMILES) | Activity (PC-9) | Activity (L02) | Activity (Pseudomonas aeruginosa) | Activity (Escherichia coli) | Activity (Candida albicans) | Activity (A549) | Activity (Staphylococcus aureus [1]) | Activity (Staphylococcus aureus [2]) | Activity (Nakaseomyces glabratus) | Activity (HCT-116)
1 | COc1cc(=O)oc(/C=C/C=C/C=C/[C@@]2(C)O[C@]3(C)[C@@H](O)[C@](C)(O[C@@H]3C)[C@H]2O)c1C | inactive | Non-toxic | inactive | inactive | inactive | inactive | inactive | inactive | inactive | –
2 | COc1cc(=O)oc(\C=C/C=C/C=C/[C@]2(C)O[C@]3(C)[C@@H](O)[C@@](C)(O[C@@H]3C)[C@@H]2O)c1C | inactive | Non-toxic | inactive | inactive | inactive | inactive | inactive | inactive | inactive | –
3 | COc1cc(=O)oc(/C=C/C=C/C=C/[C@]2(C)O[C@]3(C)[C@@H](O)[C@@](C)(O[C@@H]3C)[C@H]2O)c1C | inactive | Non-toxic | inactive | inactive | inactive | inactive | inactive | inactive | inactive | –
4 | COc1cc(=O)oc(/C=C/C=C/C=C\[C@]2(C)O[C@]3(C)[C@@H](O)[C@](C)(O[C@@H]3C)[C@@H]2O)c1C | inactive | Non-toxic | inactive | inactive | inactive | inactive | inactive | inactive | inactive | –
5 | COc1cc(=O)oc(/C=C/C=C/C=C/[C@@]2(C)O[C@@]3(C)[C@@H](C)O[C@](C)(C2=O)[C@H]3O)c1C | inactive | Non-toxic | inactive | inactive | inactive | inactive | inactive | inactive | inactive | –
6 | COc1cc(=O)oc(/C=C/C=C/C=C/[C@]2(C)O[C@]3(C)[C@@H](O)[C@@](C)(O[C@@H]3C)[C@@H]2O)c1C | inactive | Non-toxic | inactive | inactive | inactive | inactive | inactive | inactive | inactive | –
7 | COc1cc(=O)oc(/C=C/C=C/C=C\[C@@]2(C)O[C@]3(C)[C@@H](O)[C@](C)(O[C@@H]3C)[C@@H]2O)c1C | inactive | Non-toxic | inactive | inactive | inactive | inactive | inactive | inactive | inactive | –
8 | COc1cc(=O)oc(/C=C/C=C/C=C/[C@@]2(C)O[C@]3(C)[C@@H](O)[C@@](C)(O[C@@H]3C)C2=O)c1C | inactive | Non-toxic | inactive | inactive | inactive | inactive | inactive | inactive | inactive | –
9 | COc1cc(=O)oc(\C=C/C=C/C=C/C(C)=C/[C@]2(C)O[C@H](C)[C@](C)(O)[C@H]2O)c1C | – | Non-toxic | inactive | inactive | inactive | inactive | inactive | inactive | inactive | inactive
10 | COc1cc(=O)oc(/C=C/C=C/C=C/C(C)=C\[C@]2(C)O[C@H](C)[C@](C)(O)[C@H]2O)c1C | – | Non-toxic | inactive | inactive | inactive | inactive | inactive | inactive | inactive | inactive
11 | COc1cc(=O)oc(/C=C/C=C/C=C/[C@]2(C)O[C@]3(C)[C@@H](O)[C@@](C)(O[C@@H]3C)C2=O)c1C | inactive | Non-toxic | inactive | inactive | inactive | inactive | inactive | inactive | inactive | –
12 | COc1cc(=O)oc(/C=C/C=C/C=C/C(C)=C/[C@]2(C)O[C@H](C)[C@](C)(O)[C@H]2O)c1C | – | Non-toxic | inactive | inactive | inactive | inactive | inactive | inactive | inactive | inactive
